The text below walks through data of ChEMBL document CHEMBL1137885, “P4 and P1' optimization of bicycloproline P2 bearing tetrapeptidyl alpha-ketoamides as HCV protease inhibitors” (Bioorg Med Chem Lett, 2004).

In test [1] the target is NS3 (Hepatitis C virus, UniProt A3EZJ3). Put plainly: Inhibition of HCV NS3 protease in the pNA based inhibition assay. More on the design: species or system Hepacivirus hominis.
Test [2] deals with Hepatitis C virus. The test can be described thus: Inhibitory concentration against hepatitis C virus in replicon assay. Format: functional, organism-based, Hepacivirus hominis.
Test [3] deals with Huh-7. The test can be described thus: Ratio of CC50 to that of IC50 value. Format: functional, Homo sapiens.
Test [4] relates to Huh-7. Put plainly: Cytotoxic concentration against Huh-7 liver cells in XTT cytotoxicity assay. Type of test: functional. As to conditions: Homo sapiens.
Test [5] concerns the target Chymotrypsinogen B (Homo sapiens, UniProt P17538). The test can be described thus: Binding affinity towards human Chymotrypsinogen.
For test [6], the target named is Trypsin (Homo sapiens, UniProt P07477+P07478+P35030). Put plainly: Binding affinity towards human trypsin. Format: protein assay.
In test [7] the target is Procathepsin L (Homo sapiens, UniProt P07711). The test can be described thus: Selectivity for HCV NS3 over human cathepsin L.
Test [8] deals with Cathepsin B (Homo sapiens, UniProt P07858). The test can be described thus: Binding affinity towards human cathepsin B.
A short description of test [9]: Selectivity for HCV NS3 over human elastase.
For test [10], the target named is Prothrombin (Homo sapiens, UniProt P00734). Put plainly: Binding affinity towards human thrombin.
Test [11] deals with Plasminogen (Homo sapiens, UniProt P00747). Put plainly: Binding affinity towards human plasmin.
The target of test [12] is Plasma kallikrein (Homo sapiens, UniProt P03952). Put plainly: Binding affinity towards human kallikrein.
Sequence of Plasma kallikrein (P03952 20-390 limits assumed): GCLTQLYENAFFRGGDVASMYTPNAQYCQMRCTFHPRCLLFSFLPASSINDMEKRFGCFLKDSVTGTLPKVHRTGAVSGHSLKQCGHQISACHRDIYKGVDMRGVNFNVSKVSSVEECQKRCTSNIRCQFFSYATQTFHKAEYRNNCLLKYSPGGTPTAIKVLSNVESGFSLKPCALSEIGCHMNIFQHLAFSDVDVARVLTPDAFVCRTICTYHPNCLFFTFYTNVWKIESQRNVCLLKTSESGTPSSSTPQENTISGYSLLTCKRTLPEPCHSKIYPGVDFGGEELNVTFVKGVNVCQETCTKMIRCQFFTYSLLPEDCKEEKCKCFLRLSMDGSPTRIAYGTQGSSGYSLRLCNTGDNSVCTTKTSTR
Sequence of Plasma kallikrein (P03952 391-638 limits assumed): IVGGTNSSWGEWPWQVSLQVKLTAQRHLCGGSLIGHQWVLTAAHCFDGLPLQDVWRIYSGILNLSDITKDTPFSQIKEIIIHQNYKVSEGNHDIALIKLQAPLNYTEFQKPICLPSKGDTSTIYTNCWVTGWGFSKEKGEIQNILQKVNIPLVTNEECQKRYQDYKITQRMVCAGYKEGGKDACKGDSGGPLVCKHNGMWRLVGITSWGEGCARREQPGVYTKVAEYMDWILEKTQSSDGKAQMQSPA

Sequence of NS3 (A3EZJ3 whole entry): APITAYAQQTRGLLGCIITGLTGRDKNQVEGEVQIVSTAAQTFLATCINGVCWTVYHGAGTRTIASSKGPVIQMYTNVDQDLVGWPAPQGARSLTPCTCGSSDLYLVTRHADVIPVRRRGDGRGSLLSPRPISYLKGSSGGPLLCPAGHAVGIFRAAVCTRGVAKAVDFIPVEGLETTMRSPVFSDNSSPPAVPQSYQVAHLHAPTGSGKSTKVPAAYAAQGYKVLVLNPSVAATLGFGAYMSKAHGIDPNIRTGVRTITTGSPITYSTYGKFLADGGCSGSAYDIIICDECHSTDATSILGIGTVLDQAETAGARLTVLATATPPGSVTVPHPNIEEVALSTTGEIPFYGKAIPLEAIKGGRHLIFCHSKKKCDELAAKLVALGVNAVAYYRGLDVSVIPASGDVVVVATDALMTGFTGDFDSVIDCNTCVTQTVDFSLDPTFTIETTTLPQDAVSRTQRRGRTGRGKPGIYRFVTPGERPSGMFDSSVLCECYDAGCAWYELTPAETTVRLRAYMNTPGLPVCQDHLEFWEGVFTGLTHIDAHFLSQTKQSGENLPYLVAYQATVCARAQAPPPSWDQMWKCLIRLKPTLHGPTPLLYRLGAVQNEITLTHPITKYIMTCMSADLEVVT
Sequence of Chymotrypsinogen B (P17538 34-164 limits assumed, other chains not shown): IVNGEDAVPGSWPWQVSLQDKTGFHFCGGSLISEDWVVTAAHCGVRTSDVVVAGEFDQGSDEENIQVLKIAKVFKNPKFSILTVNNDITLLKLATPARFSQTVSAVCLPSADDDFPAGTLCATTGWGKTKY
Sequence of Chymotrypsinogen B (P17538 167-263 limits assumed, other chains not shown): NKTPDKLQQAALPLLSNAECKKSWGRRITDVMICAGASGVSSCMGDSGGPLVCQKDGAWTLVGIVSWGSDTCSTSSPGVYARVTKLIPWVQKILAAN
Sequence of Plasminogen (P00747 97-580 limits assumed): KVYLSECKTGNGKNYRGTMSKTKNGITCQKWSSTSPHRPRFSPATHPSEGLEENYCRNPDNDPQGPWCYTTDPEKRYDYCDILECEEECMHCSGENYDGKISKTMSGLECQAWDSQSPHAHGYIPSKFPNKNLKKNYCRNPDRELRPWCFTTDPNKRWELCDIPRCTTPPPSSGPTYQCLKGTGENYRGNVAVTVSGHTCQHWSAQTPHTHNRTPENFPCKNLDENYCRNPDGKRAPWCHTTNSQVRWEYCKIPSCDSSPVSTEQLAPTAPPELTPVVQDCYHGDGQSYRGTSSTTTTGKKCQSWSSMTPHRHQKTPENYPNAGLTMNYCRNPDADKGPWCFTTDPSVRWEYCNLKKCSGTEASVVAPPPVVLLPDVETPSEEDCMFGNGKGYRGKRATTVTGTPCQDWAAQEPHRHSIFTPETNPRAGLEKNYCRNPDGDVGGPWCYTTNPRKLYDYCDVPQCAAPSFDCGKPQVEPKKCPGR
Sequence of Plasminogen (P00747 581-810 limits assumed): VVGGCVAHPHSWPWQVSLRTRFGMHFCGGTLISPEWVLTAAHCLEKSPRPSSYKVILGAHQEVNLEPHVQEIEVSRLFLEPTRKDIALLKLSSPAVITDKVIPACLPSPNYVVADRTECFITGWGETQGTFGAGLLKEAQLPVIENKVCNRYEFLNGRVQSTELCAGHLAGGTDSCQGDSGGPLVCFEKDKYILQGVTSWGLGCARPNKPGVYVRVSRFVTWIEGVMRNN
Sequence of Procathepsin L (P07711 whole entry): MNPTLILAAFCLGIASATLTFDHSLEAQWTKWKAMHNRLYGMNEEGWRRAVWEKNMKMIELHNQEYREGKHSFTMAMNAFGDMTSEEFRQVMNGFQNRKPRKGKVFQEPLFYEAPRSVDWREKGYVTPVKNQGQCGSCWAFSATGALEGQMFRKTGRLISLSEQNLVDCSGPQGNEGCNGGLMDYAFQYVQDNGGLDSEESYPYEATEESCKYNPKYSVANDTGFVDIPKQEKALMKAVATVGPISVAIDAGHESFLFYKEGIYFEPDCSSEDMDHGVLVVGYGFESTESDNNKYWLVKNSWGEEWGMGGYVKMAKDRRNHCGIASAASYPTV

The compound `CCCC(NC(=O)[C@@H]1C2CCCC2CN1C(=O)[C@@H](NC(=O)[C@H](CC1CCCCC1)NC(=O)c1cnccn1)C(C)(C)C)C(=O)C(=O)NC1CC1` (stereo partly drawn) yielded a Ki in test [1] of 0.65 µM. Also, the IC50 in [2] came out at 2.81 µM. The Ratio in [3] amounted to 16. In addition, in test [4], it took 45.5 µM to reach half-maximal cytotoxicity (CC50).

For `CCCC(NC(=O)[C@@H]1C2CCCC2CN1C(=O)[C@@H](NC(=O)[C@@H](NC(=O)c1cnccn1)C1CCCCC1)C(C)(C)C)C(=O)C(=O)N[C@H](C)c1ccccc1` (stereo partly drawn), the Ki in test [1] is 0.09 µM; in test [5], more than 50 µM; in test [6], more than 50 µM; in [8] it was 283 µM; in test [10], more than 50 µM; in [11], more than 50 µM. The compound also showed a Ki in test [12] of more than 50 µM. For the same compound, the results for the selectivity ratio in test [7] and in test [9] were 51 and 29, respectively. Besides, the IC50 in [2] amounted to 0.21 µM. Besides, the Ratio in test [3] is 105. The CC50 in test [4] came out at 22 µM.

Turning to `CCC[C@H](NC(=O)[C@@H]1C2CCCC2CN1C(=O)[C@@H](NC(=O)[C@@H](NC(=O)c1cnccn1)C(C)(C)C)C(C)(C)C)C(=O)C(=O)NC1CC1` (stereo partly drawn), the Ki is 0.16 µM in test [1]; more than 50 µM in test [5]; more than 50 µM in test [6]; 3.9 µM in test [8]; more than 50 µM in [10]; more than 50 µM in test [11]. The Ki in [12] is more than 50 µM. Moreover, the selectivity ratio in test [7] was 123; in test [9] it was 102. This compound also yielded an IC50 in [2] of 1.29 µM. Moreover, the Ratio in test [3] was more than 77. Besides, the CC50 in test [4] was more than 100 µM.

Take `CCCC(NC(=O)[C@@H]1C2CCCC2CN1C(=O)[C@@H](NC(=O)[C@@H](NC(=O)c1cnccn1)C1CCCCC1)C(C)(C)C)C(=O)C(=O)NC[C@@H](C)CC` (stereo partly drawn): the affinity in [1], expressed as Ki, was 0.25 µM. This compound displayed an IC50 in test [2] of 1 µM. Moreover, the Ratio in test [3] stood at 32. The CC50 in test [4] is 31.7 µM.

`CCC[C@H](NC(=O)[C@@H]1C2CCCC2CN1C(=O)[C@@H](NC(=O)[C@@H](NC(=O)c1cnccn1)[C@@H](C)OC)C(C)(C)C)C(=O)C(=O)NC1CC1` (stereo partly drawn): the Ki in [1] is 0.15 µM; in test [5] it was more than 50 µM; in test [6], more than 50 µM; in test [8], 7.3 µM; in test [10] it was more than 50 µM; in [11] it was more than 50 µM. The compound further had a Ki in test [12] of more than 50 µM. Besides, the selectivity ratio in test [7] turned out to be 146; in test [9] it was 126. The IC50 in [2] was 4.35 µM. Besides, the Ratio in test [3] is on record as more than 22. In addition, in test [4], the CC50 is more than 100 µM.

Regarding `CCCC(NC(=O)[C@@H]1[C@H]2CCC[C@H]2CN1C(=O)[C@@H](NC(=O)[C@@H](NC(=O)c1cnccn1)C(C)C)C(C)(C)C)C(=O)C(=O)NC1CC1` (stereo partly drawn), the Ki in test [5] was more than 50 µM; in test [6], more than 50 µM; in [8], 1.6 µM; in test [10], more than 50 µM; in [11] it was more than 50 µM; in test [12], more than 50 µM. Further, the CC50 in test [4] was more than 100 µM.

Regarding `CC(C)(C)[C@H](NC(=O)[C@@H](NC(=O)c1cnccn1)C1CCCCC1)C(=O)N1CC2CCCC2[C@H]1C(=O)NC(CC(F)F)C(=O)C(=O)NC1CC1` (stereo partly drawn), the Ki in [1] is 0.02 µM; in test [5], more than 50 µM; in test [6] it was more than 50 µM; in test [8], 40 µM; in [10], more than 50 µM; in test [11], more than 50 µM. The compound also showed a Ki in test [12] of more than 50 µM. Further, the selectivity ratio in [7] amounted to 760; in [9], 392. Besides, in test [2], half-maximal inhibition (IC50) required 0.4 µM. Moreover, the Ratio in test [3] was determined as 250. In test [4], the CC50 was more than 100 µM.

As for `CCCC(NC(=O)[C@@H]1C2CCCC2CN1C(=O)[C@@H](NC(=O)[C@@H](NC(=O)c1cnccn1)C1CCCCC1)C(C)(C)C)C(=O)C(=O)N[C@H](C)CC` (stereo partly drawn), the Ki in [1] is 0.08 µM; in test [5], more than 50 µM; in test [6], more than 50 µM; in test [8], 13 µM; in [10] it was more than 50 µM; in test [11] it was more than 50 µM. This compound also came in with a Ki in test [12] of more than 50 µM. For the same compound, the selectivity ratio in test [7] turned out to be 107; in [9], 81. This compound displayed an IC50 in test [2] of 1.07 µM. Moreover, the Ratio in [3] amounted to 65. The CC50 in test [4] amounted to 69.2 µM.

As to `CCC[C@H](NC(=O)[C@@H]1C2CCCC2CN1C(=O)[C@@H](NC(=O)[C@@H](NC(=O)c1cnccn1)c1ccccc1)C(C)(C)C)C(=O)C(=O)NC1CC1` (stereo partly drawn), affinity in [1] was put at a Ki of 0.65 µM. Further, in test [2], it took 2.81 µM to reach half-maximal inhibition (IC50). In addition, the Ratio in test [3] is recorded as 21. For the same compound, the CC50 in test [4] was 58.6 µM.

As for `CCC[C@H](NC(=O)[C@@H]1C2CCCC2CN1C(=O)[C@@H](NC(=O)[C@@H](NC(=O)c1cnccn1)[C@@H](C)CC)C(C)(C)C)C(=O)C(=O)NC1CC1` (stereo partly drawn), the Ki in test [1] is 0.08 µM; in [5], more than 50 µM; in [6], more than 50 µM; in [8], 10 µM; in test [10], more than 50 µM; in test [11], more than 50 µM. The Ki in test [12] was more than 50 µM. The selectivity ratio was determined as 15 in test [7] and 36 in test [9]. For the same compound, in test [2], the IC50 turned out to be 1.44 µM. Moreover, in [3], the Ratio is more than 69. In test [4], this compound displayed a CC50 of more than 100 µM.

In the case of `CCCC(NC(=O)[C@@H]1[C@H]2CCC[C@H]2CN1C(=O)[C@@H](NC(=O)[C@@H](NC(=O)c1cnccn1)C1CCCCC1)C(C)(C)C)C(=O)C(=O)NC1CC1` (stereo partly drawn), the Ki in [1] is 0.07 µM; in [5], more than 50 µM; in [6], more than 50 µM; in test [8] it was 3 µM; in test [10], more than 50 µM; in test [11], more than 50 µM. In [12], the Ki was more than 50 µM. For the same compound, the selectivity ratio stood at 134 in test [7] and 62 in [9]. In addition, the IC50 in [2] is 0.55 µM. Moreover, the Ratio in test [3] is 157. Also, half-maximal cytotoxicity in test [4] (CC50) was put at 86.5 µM.
